US9676721B2, “Compounds and compositions for the inhibition of NAMPT” (FORMA TM, LLC, priority 2010, dated 2017)

Tests used:
NAMPT = NAMPT (Homo sapiens (Human), UniProt P43490); assay: Biochemical Inhibition Assay (NAMPT enzymatic reaction, NMN by mass spectrometry); conditions: recombinant His-tagged NAMPT 33 nM, 1 μM NAM, 30 minutes; read-out: Biochem IC50
Procedure: Biochemical Inhibition Assay NAMPT Protein Purification Recombinant His-tagged NAMPT was produced in E. coli cells, purified over a Ni column, and further purified over a size-exclusion column by XTAL Biostructures. The NAMPT Enzymatic Reaction The NAMPT enzymatic reactions were carried out in Buffer A (50 mM Hepes pH 7.5, 50 mM NaCl, 5 mM MgCl2, and 1 mM THP) in 96-well V-bottom plates. The compound titrations were performed in a separate dilution plate by serially diluting the compounds in DMSO to make a 100× stock. […] Background and signal strength was determined by addition (or non-addition) of a serial dilution of NMN to a pre-quenched enzyme and cofactor mix. Quantification of NMN A mass spectrometry-based assay was used to measure the NAMPT reaction product (NMN) and the internal control (L-Cystathionine). NMN and L-Cystathionine were detected using the services of Biocius Lifesciences with the RapidFire system. In short, the NMN and L-Cystathionine are bound to a graphitic carbon cartridge in 0.1% formic acid, eluted in 30% acetonitrile buffer, and injected into a Sciex 4000 mass spectrometer. The components of the sample were ionized with electrospray ionization and the positive ions were detected. […] The fragments are quantified and the analyzed by the following method. % Inhibitions are Determined Using this Method. First the NMN signal is normalized to the L-Cystathionine signal by dividing the NMN signal by the L-Cystathionine signal for each well. The signal from the background wells are averaged and subtracted from the test plates. […] IC50s are Determined Using Excel and this Formula.

A2780 cells = assay: In-Vitro Cell Proliferation Assay (SRB); assay type: cell-based; conditions: Homo sapiens, A2780, 72 h
Procedure: In-Vitro Cell Proliferation Assay […] After overnight incubation at 37° C. and 5% CO2, the compound titrations were performed in a separate dilution plate by serially diluting the compounds in DMSO to make a 1000× stock. The compounds were then further diluted to 10× final concentration in culture media, whereupon 20 μL of each dilution was added to the plated cells with controls (e.g. DMSO and blank) to make a final volume of 200 μL. The final DMSO concentration in each well was 0.1%. The plates were then incubated for 72 hours at 37° C. in a 5% CO2 incubator. The number of viable cells was then assessed using sulforhodamine B (SRB) assay. Cells were fixed at 4° C. for 1 hour with the addition of 50 μL 30% trichloroacetic acid (TCA) to make a final concentration of 6% TCA. The plates were washed four times with H2O and allowed to dry for at least 1 hour, whereupon 100 μL of a […] SRB in 1% acetic acid solution was added to each well and incubated at room temperature for at least 30 minutes. The plates were then washed three times with 1% acetic acid, dried, and treated with 100 μL of 10 mM Tris-Base solution. The plates were then read in a microplate reader at an absorbance of 570 nm. Background was generated on a separate plate with media only. Method for Determining % Inhibition First, the signals from the background plate are averaged, then the background was subtracted from the test plates. […] Formula for Determining IC50 Values: […] Specificity of Cytotoxicity. Inhibition of NAMPT could be reversed by the addition of NAM or NMN. The specificity of the compounds were determined via cell viability assay in the presence of the compound and either NAM or NMN. Percent inhibitions were determined using the method given above.

Chain of NAMPT (P43490 whole entry): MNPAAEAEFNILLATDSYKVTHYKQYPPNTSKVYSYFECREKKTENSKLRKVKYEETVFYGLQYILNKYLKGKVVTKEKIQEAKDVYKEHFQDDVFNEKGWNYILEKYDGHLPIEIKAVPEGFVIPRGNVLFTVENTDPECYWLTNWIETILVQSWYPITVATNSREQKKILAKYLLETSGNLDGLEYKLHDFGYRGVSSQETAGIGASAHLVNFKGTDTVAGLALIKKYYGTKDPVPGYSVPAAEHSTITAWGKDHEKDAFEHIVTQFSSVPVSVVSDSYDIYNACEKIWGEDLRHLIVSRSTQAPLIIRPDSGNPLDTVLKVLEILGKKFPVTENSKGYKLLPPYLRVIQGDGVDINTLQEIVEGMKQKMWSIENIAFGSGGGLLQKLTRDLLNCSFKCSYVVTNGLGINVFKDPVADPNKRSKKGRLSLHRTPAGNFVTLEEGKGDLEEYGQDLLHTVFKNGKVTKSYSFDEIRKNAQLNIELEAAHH

SMILES | IC50 (NAMPT) [nM] | IC50 (A2780 cells) [nM]
N#C/N=C(\NCc1ccc(S(=O)(=O)N2CC3CCC(C2)O3)cc1)Nc1ccncc1 [2-cyano-3-[(4-{8-oxa-3-azabicyclo[3.2.1]octane-3-sulfonyl}phenyl)methyl]-1-(pyridin-4-yl)guanidine] | 3 | 11
N#CN=C(NCc1ccc(S(=O)(=O)c2ccc(F)c(F)c2)cc1)Nc1ccncc1 [2-cyano-1-({4-[(3,4-difluorobenzene)sulfonyl]phenyl}methyl)-3-(pyridin-4-yl)guanidine] | 0.8 | 2.5
CN(C)C(=O)c1cccc(S(=O)(=O)c2ccc(CNC(=NC#N)Nc3ccncc3)cc2)c1 [3-[(4-{[2-cyano-3-(pyridin-4-yl)carbamimidamido]methyl}benzene)sulfonyl]-N,N-dimethylbenzamide] | 3.4 | 64
CC(C)Oc1cccc(S(=O)(=O)c2ccc(CNC(=NC#N)Nc3ccncc3)cc2)c1 [2-cyano-1-[(4-{[3-(propan-2-yloxy)benzene]sulfonyl}phenyl)methyl]-3-(pyridin-4-yl)guanidine] | 3.2 | 5.7
COc1cc(C(F)(F)F)ccc1S(=O)(=O)c1ccc(CNC(=NC#N)Nc2ccncc2)cc1 [2-cyano-1-[(4-{[2-methoxy-4-(trifluoromethyl)benzene]sulfonyl}phenyl)methyl]-3-(pyridin-4-yl)guanidine] | 5.7 | 6
CCCn1cc(S(=O)(=O)c2ccc(CNC(=NC#N)Nc3ccncc3)cc2)cn1 [2-cyano-1-{[4-(1-propyl-1H-pyrazole-4-sulfonyl)phenyl]methyl}-3-(pyridin-4-yl)guanidine] | 4.1 | 6.4
N#CN=C(NCc1ccc(S(=O)(=O)c2ccc(Cl)c(Cl)c2)cc1)Nc1ccncc1 [2-cyano-1-({4-[(3,4-dichlorobenzene)sulfonyl]phenyl}methyl)-3-(pyridin-4-yl)guanidine] | 1.7 | 1
COc1cc(S(=O)(=O)c2ccc(CNC(=NC#N)Nc3ccncc3)cc2)ccc1C [2-cyano-1-({4-[(3-methoxy-4-methylbenzene)sulfonyl]phenyl}methyl)-3-(pyridin-4-yl)guanidine] | 1.2 | 0.8
N#CN=C(NCc1ccc(S(=O)(=O)c2cc(F)cc(F)c2)cc1)Nc1ccncc1 [2-cyano-1-({4-[(3,5-difluorobenzene)sulfonyl]phenyl}methyl)-3-(pyridin-4-yl)guanidine] | 1 | 2
Cc1ccccc1S(=O)(=O)c1ccc(CNC(=NC#N)Nc2ccncc2)cc1 [2-cyano-1-({4-[(2-methylbenzene)sulfonyl]phenyl}methyl)-3-(pyridin-4-yl)guanidine] | 7.9 | 5.6
CCCS(=O)(=O)Nc1cccc(S(=O)(=O)c2ccc(CNC(=NC#N)Nc3ccncc3)cc2)c1 [2-cyano-1-[(4-{[3-(propane-1-sulfonamido)benzene]sulfonyl}phenyl)methyl]-3-(pyridin-4-yl)guanidine] | 2.1 | 23.3
COCc1cccc(S(=O)(=O)c2ccc(CNC(=NC#N)Nc3ccncc3)cc2)c1 [2-cyano-1-[(4-{[3-(methoxymethyl)benzene]sulfonyl}phenyl)methyl]-3-(pyridin-4-yl)guanidine] | 7.2 | 5.9
COc1cncc(S(=O)(=O)c2ccc(CNC(=NC#N)Nc3ccncc3)cc2)c1 [2-cyano-1-{[4-(5-methoxypyridine-3-sulfonyl)phenyl]methyl}-3-(pyridin-4-yl)guanidine] | 4.3 | 9.1
N#CN=C(NCc1ccc(S(=O)(=O)c2cccc(C(F)(F)F)c2)cc1)Nc1ccncc1 [2-cyano-3-(pyridin-4-yl)-1-[(4-{[3-(trifluoromethyl)benzene]sulfonyl}phenyl)methyl]guanidine] | 2.5 | 1.2
COc1cc(Cl)ccc1S(=O)(=O)c1ccc(CNC(=NC#N)Nc2ccncc2)cc1 [1-({4-[(4-chloro-2-methoxybenzene)sulfonyl]phenyl}methyl)-2-cyano-3-(pyridin-4-yl)guanidine] | 3 | 1.9
Cc1cc(F)cc(S(=O)(=O)c2ccc(CN/C(=N\C#N)Nc3ccncc3)cc2)c1 [2-cyano-1-({4-[(3-fluoro-5-methylbenzene)sulfonyl]phenyl}methyl)-3-(pyridin-4-yl)guanidine] | 1.7 | 3.3
Cc1cc(Cl)cc(S(=O)(=O)c2ccc(CNC(=NC#N)Nc3ccncc3)cc2)c1 [1-({4-[(3-chloro-5-methylbenzene)sulfonyl]phenyl}methyl)-2-cyano-3-(pyridin-4-yl)guanidine] | 3.3 | 1.6
N#CN=C(NCc1ccc(S(=O)(=O)c2cccc(C(=O)NC3CCCC3)c2)cc1)Nc1ccncc1 [3-[(4-{[2-cyano-3-(pyridin-4-yl)carbamimidamido]methyl}benzene)sulfonyl]-N-cyclopentylbenzamide] | 6.6 | 28.3
N#CN=C(NCc1ccc(S(=O)(=O)c2cc(F)cc(C(F)(F)F)c2)cc1)Nc1ccncc1 [2-cyano-1-[(4-{[3-fluoro-5-(trifluoromethyl)benzene]sulfonyl}phenyl)methyl]-3-(pyridin-4-yl)guanidine] | 6 | 1.5
N#CN=C(NCc1ccc(S(=O)(=O)c2ccc3ncccc3c2)cc1)Nc1ccncc1 [2-cyano-3-(pyridin-4-yl)-1-{[4-(quinoline-6-sulfonyl)phenyl]methyl}guanidine] | 6.2 | 6.6
Cn1cc(S(=O)(=O)c2ccc(CNC(=NC#N)Nc3ccncc3)cc2)cn1 [2-cyano-1-{[4-(1-methyl-1H-pyrazole-4-sulfonyl)phenyl]methyl}-3-(pyridin-4-yl)guanidine] | 4.3 | 49.3
N#CN=C(NCc1ccc(S(=O)(=O)c2cc(F)cc(OCC(F)(F)F)c2)cc1)Nc1ccncc1 [2-cyano-1-[(4-{[3-fluoro-5-(2,2,2-trifluoroethoxy)benzene]sulfonyl}phenyl)methyl]-3-(pyridin-4-yl)guanidine] | 5.3 | 1.9
CCNC(=O)c1ccc(S(=O)(=O)c2ccc(CNC(=NC#N)Nc3ccncc3)cc2)cc1 [4-[(4-{[2-cyano-3-(pyridin-4-yl)carbamimidamido]methyl}benzene)sulfonyl]-N-ethylbenzamide] | 6.5 | 65.8
Cc1ccc(F)cc1S(=O)(=O)c1ccc(CNC(=NC#N)Nc2ccncc2)cc1 [2-cyano-1-({4-[(5-fluoro-2-methylbenzene)sulfonyl]phenyl}methyl)-3-(pyridin-4-yl)guanidine] | 4.5 | 3.3
Cn1c(S(=O)(=O)c2ccc(CNC(=NC#N)Nc3ccncc3)cc2)cc2ccccc21 [2-cyano-1-{[4-(1-methyl-1H-indole-2-sulfonyl)phenyl]methyl}-3-(pyridin-4-yl)guanidine] | 2.1 | 1.2
N#CN=C(NCc1ccc(S(=O)(=O)c2cccc(C#N)c2)cc1)Nc1ccncc1 [2-cyano-1-({4-[(3-cyanobenzene)sulfonyl]phenyl}methyl)-3-(pyridin-4-yl)guanidine] | 1.7 | 6.2
CCOc1ccc(S(=O)(=O)c2ccc(CNC(=NC#N)Nc3ccncc3)cc2)cc1F [2-cyano-1-({4-[(4-ethoxy-3-fluorobenzene)sulfonyl]phenyl}methyl)-3-(pyridin-4-yl)guanidine] | 6 | 3.2
N#CN=C(NCc1ccc(S(=O)(=O)c2cc(F)cc(Cl)c2)cc1)Nc1ccncc1 [1-({4-[(3-chloro-5-fluorobenzene)sulfonyl]phenyl}methyl)-2-cyano-3-(pyridin-4-yl)guanidine] | 5.1 | 6.9
Cc1ccc(S(=O)(=O)c2ccc(CNC(=NC#N)Nc3ccncc3)cc2)c(C)c1 [2-cyano-1-({4-[(2,4-dimethylbenzene)sulfonyl]phenyl}methyl)-3-(pyridin-4-yl)guanidine] | 2.4 | 1.5
